Like-named read-outs stand apart in the source and are kept apart here.
How the values were obtained:
[1] = Clearance pathways (available data); type: in vivo, human
P-glycoprotein (P-gp) = P-glycoprotein (P-gp) (Homo sapiens, UniProt P08183); experiment: In vitro P-gp substrate experiments; type: in vitro ADME; details: active transport saturable at high concentrations
[2] = JACKPOT2 multiple-ascending-dose plasma PK (once daily, 14 days); type: in vivo, human; details: for Cmax / AUC(0-t) / Tmax: human, plasma, oral; for Cmax / AUC(0-t): geometric mean (CV%); for AUC(0-t): read-out: AUC0-24h; for Tmax: median (min, max)
Experimental: A total of 42 and 24 healthy participants were enrolled in part A and part B, respectively. In part A, a total of 30 participants were randomized into 5 SAD cohorts (n = 6 per cohort) and received a single dose of golidocitinib at different dose levels or a matching placebo in a 4:2 ratio. In the food effect cohort, a total of 12 participants were enrolled and received the study drug under fasted or fed conditions, with a sequential design. The 50 mg dose was selected based on available safety data after the completion of the SAD cohorts, and also on the outcomes from PK/PD modeling for potential efficacious dose for autoimmune disease. On Day 1, participants took a single dose of golidocitinib under fast condition. After a 14-day wash-out period, on Day 15, participants received another single dose of golidocitinib immediately after a standard high-fat meal. Food recipes and contents are consistent with that described in FDA Guidance for Food-Effect Bioavailability studies ([10]). For the fed condition, keeping fasted for at least 10 hours, participants started ingestion of high-fat meal 30 minutes prior to administration of golidocitinib. They had to finish the meal within 30 minutes or less, and no food was allowed for at least 4 hours post-dose. In part B, a total of 24 participants were randomized into 3 MAD cohorts, with 8 in each cohort (active:placebo = 6:2). In these cohorts, participants received golidocitinib at different dose levels or placebo once daily dosing for 14 days. Dose escalation was based on available PK and safety data in the previous cohorts.
In the SAD cohorts, serial blood samples were obtained on Day 1 at pre-dose, and at 0.5, 1, 1.5, 2, 3, 4, 6, 10, 14, 24 (Day 2), 48 (Day 3), 72 (Day 4), 120 (Day 6), 168 (Day 8) and 216 (Day 10) hours post-dose for plasma PK analysis. A similar sampling schedule was undertaken for the MAD cohorts on Day 1 and Day 14, with additional trough samples obtained on Days 5, Day 8, and Day 11. In the MAD cohorts, urine samples were collected on Day 14 during the collection intervals of 0-4, 4-10, and 10-24 hours following the last dose for urine PK analysis. Plasma and urine samples were analyzed by Frontage Laboratories Inc. (New Jersey, USA) using a validated LC/MS/MS bioanalytical method to determine golidocitinib concentrations. Cross validation in plasma was successful between Frontage Laboratories Inc. (New Jersey, USA) and Frontage Laboratories Inc. (Shanghai) using clinical samples and spiked quality control samples.
Non-compartmental PK analysis for golidocitinib concentrations was performed using Phoenix WinNonlin (Certara USA Inc., version 8.1).
Dose proportionality was concluded if the 90% confidence interval for the ratio of dose-normalized, geometric mean values (Rdnm) was contained completely within the range of 0.8 - 1.25 ([11], [12]).

[3] = 25 mg, 25 mg once daily, Day 14
[4] = 50 mg, 50 mg once daily, Day 14
[5] = 100 mg, 100 mg once daily, Day 1
[6] = 100 mg, 100 mg once daily, Day 14

Chain of P-glycoprotein (P-gp) (P08183 whole entry): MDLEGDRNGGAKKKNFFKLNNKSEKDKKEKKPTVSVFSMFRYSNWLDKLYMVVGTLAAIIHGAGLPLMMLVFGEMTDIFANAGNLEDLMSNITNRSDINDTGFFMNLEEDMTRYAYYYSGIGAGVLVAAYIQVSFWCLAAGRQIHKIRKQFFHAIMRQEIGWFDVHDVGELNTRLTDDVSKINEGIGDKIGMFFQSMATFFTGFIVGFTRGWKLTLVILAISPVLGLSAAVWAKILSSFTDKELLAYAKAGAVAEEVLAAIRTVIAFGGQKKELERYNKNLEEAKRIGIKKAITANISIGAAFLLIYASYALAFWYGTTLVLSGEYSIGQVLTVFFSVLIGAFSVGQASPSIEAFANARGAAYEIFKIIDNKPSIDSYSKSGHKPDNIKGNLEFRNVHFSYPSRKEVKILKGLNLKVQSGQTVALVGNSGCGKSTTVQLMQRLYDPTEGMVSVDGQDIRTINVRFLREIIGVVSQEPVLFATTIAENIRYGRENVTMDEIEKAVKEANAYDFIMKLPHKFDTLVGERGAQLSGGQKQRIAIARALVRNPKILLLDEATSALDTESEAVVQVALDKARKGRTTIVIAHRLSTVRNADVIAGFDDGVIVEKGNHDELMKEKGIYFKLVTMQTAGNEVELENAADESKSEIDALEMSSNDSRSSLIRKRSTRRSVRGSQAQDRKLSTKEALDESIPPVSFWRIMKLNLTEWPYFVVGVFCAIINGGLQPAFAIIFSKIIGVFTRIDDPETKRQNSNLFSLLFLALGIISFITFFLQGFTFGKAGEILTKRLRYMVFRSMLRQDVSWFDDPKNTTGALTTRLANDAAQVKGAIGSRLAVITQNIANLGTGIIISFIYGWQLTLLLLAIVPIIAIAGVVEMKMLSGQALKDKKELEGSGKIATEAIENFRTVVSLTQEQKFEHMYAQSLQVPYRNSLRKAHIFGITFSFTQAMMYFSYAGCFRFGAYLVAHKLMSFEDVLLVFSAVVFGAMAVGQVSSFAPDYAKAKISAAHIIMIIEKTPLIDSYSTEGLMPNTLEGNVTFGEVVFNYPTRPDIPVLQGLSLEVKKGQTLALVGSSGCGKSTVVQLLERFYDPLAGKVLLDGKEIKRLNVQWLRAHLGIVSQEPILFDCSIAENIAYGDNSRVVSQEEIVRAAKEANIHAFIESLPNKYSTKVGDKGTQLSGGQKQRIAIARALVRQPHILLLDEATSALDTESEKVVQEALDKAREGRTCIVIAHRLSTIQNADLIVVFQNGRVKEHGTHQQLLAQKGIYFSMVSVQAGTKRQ

Q: With COc1nn(C)cc1Nc1nccc(-c2c[nH]c3c(NC(=O)[C@@H](C)N4CCN(C)CC4)cccc23)n1 [golidocitinib, (2R)-N-[3-[2-[(3-Methoxy-1-methyl-pyrazol-4-yl)amino]pyrimidin-4-yl]-1H-indol-7-yl]-2-(4-methylpiperazin-1-yl)propenamide] as the compound, how does the “hepatic clearance, share of clearance” value [1] read?
A: Its value is 70-80%.

Q: What about the “renal excretion, share of clearance” value [1] of the same compound?
A: Its value is 20-30%.

Q: What about the P-gp substrate status (P-glycoprotein (P-gp)) of the same compound?
A: Its P-gp substrate status is “P-glycoprotein (P-gp) substrate”.

Q: What about the Cmax ([2]; 25 mg, 25 mg once daily, Day 1) of the same compound?
A: Its Cmax is 33.8 ng/mL.

Q: What about the AUC(0-t) ([2]; 25 mg, 25 mg once daily, Day 1) of the same compound?
A: The AUC(0-t) was 536 ng·h/mL.

Q: What about the Tmax ([2]; 25 mg, 25 mg once daily, Day 1) of the same compound?
A: Its Tmax is 6 h.

Q: And the Cmax [2, 3]?
A: The Cmax was 83.9 ng/mL.

Q: What about the AUC(0-t) [2, 3] of the same compound?
A: Its AUC(0-t) is 1530 ng·h/mL.

Q: What about the Tmax [2, 3] of the same compound?
A: The Tmax was 6 h.

Q: What about the Cmax ([2]; 50 mg, 50 mg once daily, Day 1) of the same compound?
A: Its Cmax is 62.1 ng/mL.

Q: What about the AUC(0-t) ([2]; 50 mg, 50 mg once daily, Day 1) of the same compound?
A: Its AUC(0-t) is 1020 ng·h/mL.

Q: And the Tmax ([2]; 50 mg, 50 mg once daily, Day 1)?
A: The Tmax was 6 h.

Q: What about the Cmax [2, 4] of the same compound?
A: The Cmax was 169 ng/mL.

Q: And the AUC(0-t) [2, 4]?
A: The AUC(0-t) was 3190 ng·h/mL.

Q: And the Tmax [2, 4]?
A: Its Tmax is 6 h.

Q: And the Cmax [2, 5]?
A: The Cmax was 149 ng/mL.

Q: And the AUC(0-t) [2, 5]?
A: Its AUC(0-t) is 2490 ng·h/mL.

Q: And the Tmax [2, 5]?
A: Its Tmax is 4 h.

Q: And the Cmax [2, 6]?
A: The Cmax was 375 ng/mL.

Q: What about the AUC(0-t) [2, 6] of the same compound?
A: Its AUC(0-t) is 7190 ng·h/mL.

Q: And the Tmax [2, 6]?
A: The Tmax was 6 h.

Q: What about the “increase of Cmax and AUC0-24hr on day 14 compared to day 1 (accumulation)” value ([2]; multiple once-daily dosing) of the same compound?
A: Its value is 2-3 folds.

Q: What about the “time to steady-state plasma concentrations” value ([2]; once-daily dosing) of the same compound?
A: The value was at most 14 days.
